In the supplement of paper PMC10307832:

Tests used:
Assay in all cases: relative viability (nuclei count vs DMSO), 5 days (fraction); higher = more cells survive
Cediranib = compound: COc1cc2c(Oc3ccc4[nH]c(C)cc4c3F)ncnc2cc1OCCCN1CCCC1 [Cediranib]
Method in brief: (§1)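 On vehicle-anchored 1536-well plates, lung cancer cell lines held overnight at 37 °C were pinned with five library-drug doses (not always all listed) spaced by √10. With no medium change over 5 days, they were then fixed, permeabilised and Hoechst-stained in one step and imaged at 4×. MetaXpress counted nuclei, and viability is the median across plates of treated-well over vehicle-well nuclei. Acceptance needed control CV below 25% and at least one doubling.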

Decitabine = compound: Nc1ncn([C@H]2C[C@H](O)[C@@H](CO)O2)c(=O)n1 [Decitabine]
Method in brief: as §1

Halofuginone = compound: O=C(C[C@H]1NCCC[C@@H]1O)Cn1cnc2cc(Br)c(Cl)cc2c1=O (racemic) [Halofuginone]
Method in brief: as §1

UMC-11
relative viability (Cediranib; 0.04 µM): 0.989 | relative viability (Cediranib; 0.1265 µM): 0.748 | relative viability (Cediranib; 0.4 µM): 0.88 | relative viability (Cediranib; 1.265 µM): 0.69 | relative viability (Cediranib; 4 µM): 0.92 | relative viability (Decitabine; 0.04 µM): 0.914 | relative viability (Decitabine; 0.1265 µM): 0.8 | relative viability (Decitabine; 0.4 µM): 0.536 | relative viability (Decitabine; 1.265 µM): 0.387 | relative viability (Decitabine; 2 µM, anchor plate): 0.638 | relative viability (Decitabine; 4 µM): 0.419 | relative viability (Halofuginone; 0.001 µM): 1.12 | relative viability (Halofuginone; 0.003162 µM): 0.984 | relative viability (Halofuginone; 0.01 µM): 0.97 | relative viability (Halofuginone; 0.03162 µM): 0.901 | relative viability (Halofuginone; 0.1 µM): 0.702
